In patent publication US20080118580A1, “ADHESION INHIBITION OF FUNGI” (priority 2001, published 2008):

Experiments:
[1] = tested on: Candida albicans strain SC5314; assay: Test for inhibition of the formation of hyphae; type: cell-based; conditions: for hyphae formation (in words): at the concentrations used
Description: An initial culture of the Candida albicans strain SC5314 was grown overnight in minimal medium (0.67% yeast nitrogen base w/o amino acids (Difco), 2% glucose) up to an optical density of 1 at 600 nm, and washed once in sterile double-distilled H2O. For the induction of hyphae, 100 μl to 900 μl of YPS (1% yeast extract, 2% peptone, 10% horse serum (Sigma)) were added, and incubated at 37° C. with shaking. To test the inhibitory action of different substances, farnesol (50 μl/l), propolis extract (200 ppm in ethanolic solution, Sigma, P 5182, origin: Alsace, France) or fucoidan (2 mg/ml, Sigma, F 5631) were added to the medium. A culture of 100 μl of cell suspension in 900 μl of YPD medium (1% yeast extract, 2% peptone, 2% glucose) which was incubated at 30° C. with shaking was used as the control. To quantify the formation of hyphae, 2×100 cells were counted under the microscope (Zeiss Axioscope) every 20 min. and the germ tubes formed calculated as a percentage of the total cells.

C. albicans = assay: Growth test; type: cell-based, Candida albicans; conditions: for Growth rate: YPD medium, 30° C., over 10 hours, reference 0.55
Description: The growth rates were measured over 10 hours in the YPD medium already described above. The optical density was initially set at 0.1 OD and the cultures were incubated at 30° C.
Here it was assumed that an optical density of 1 measured at wavelength 600 nm corresponds to about 10^7 cells.

[2] = tested on: C. albicans culture (strain SC5314); assay: Adhesion test on textiles (tetrazolium blue staining, relative light reflection); type: cell-based, Candida albicans
Description: For assessment of the inhibitory action of different substances on the adhesion of fungi, a procedure with which this adhesion to textiles can be determined semi-quantitatively was developed.
A 50 ml C. albicans culture (strain SC5314) was grown overnight with shaking in a conical flask at 30° C. up to an optical density (OD) of ca. 1 (measured at 600 nm with a spectrophotometer). After washing once in water, the cells were again incubated for one hour at 30° C. with shaking. Next, 2.5 ml of the culture were diluted in 22.5 ml of YPD medium (1% yeast extract, 2% peptone, 2% glucose) or YPS medium (1% yeast extract, 2% peptone, 10% horse serum). The YPD cultures were incubated with shaking for 2 hours at 30° C., and the YPS cultures for 2 hours at 37° C. for the induction of hyphae.
As desired, test substance was added to the media. In addition a 2.5×2.5 cm piece of test fabric (polyester microfibers) was added to the media. After incubation, the textile pieces were washed three times with wash liquor (Perwoll powder, 12 ml/l water) and twice with water (5 min. with shaking each time), then transferred to a 6-well plate and covered with a layer of YPD-tetrazolium blue agar (1% yeast extract, 2% peptone, 2% glucose, 1.5% agar, 0.5 mg/ml tetrazolium blue chloride).
The depth of the blue coloration due to enzymatic conversion of the dyestuff tetrazolium blue chloride (3,3′-[3,3′-dimethoxy(1,1′-biphenyl)-4,4′-diyl]-bis-[2,5-diphenyl-2H-tetrazolium] dichloride (Sigma, T4375) by cellular dehydrogenases of adhered C. albicans served as a measure for the number of adhered Candida cells and was measured by measurement of the relative light reflection (measurement geometry d/8°) with a differential calorimeter (Dr. Lange Micro Color). The instrument was calibrated in accordance with the manufacturer's instructions. For this, the textile patches were dissolved out from the agar and subjected to the measurement with the differential calorimeter. In accordance with DIN 5033, the differential calorimeter determines the diffuse reflection of the samples at an angle of 8°.

Candida albicans = assay: Wash tests, contamination with Candida albicans; type: cell-based; conditions: addition of farnesol to detergent, versus same detergent without
Description: The wash tests were performed in standard domestic washing machines (Miele W 918 Novotronic), which had previously been disinfected, in the delicates program at 30° C. The fungal cells were applied onto textile supports (polyamid, 2.5×2.5 cm) (2×10^5 cells/microbe support) and washed together with 3.5 kg of disinfected fill laundry with the detergent formulae. As the control, the wash was performed with the same detergent without farnesol. After the washing and drying in the air, both the residual microbial burden and also the microbial transfer to other, sterile textiles were determined.
The experiments were performed with the detergents A (addition of farnesol) and B (reference).
75 ml of the liquid detergent is added; this corresponds to a farnesol concentration of 20 ppm in the wash liquor.

[3] = description, no concentration given

In the case of `CC=Cc1ccc(OC)cc1` [Anethole, 1-methoxy-4-(1-propenyl)benzene], the “Effective inhibitory concentration (hyphae formation inhibiting concentration)” value (from here on “Effective inhibitory concentration”) [1] is reported as 0.10% wt. %.
`CCO` [Ethanol] gave a Growth rate (C. albicans; 2 wt. %) of 0.5 h⁻¹.
With `CC(C)=CCCC(C)=CCCC(C)=CCO` [Farnesol, farnesol] the Relative light reflection ([2]; 0.0025 wt. % test substance, polyester microfiber fabric, higher reflection = fewer adhered cells (YPD reference 48.7, YPS 44.7)) was 49.3, the “adhesion of fungi to textiles (in words)” value ([2]; concentrations of Table 1) was “reduction in the adhesion of fungi to textiles down to almost complete inhibition of the adhesion” and the “adhesion of fungal cells to surfaces (in words)” value ([2]; in solutions which contain the substance) was “scarcely or not at all”. For the same compound, the Growth rate (C. albicans; 0.0025 wt. %) was 0.51 h⁻¹, the “Number of hyphal cells formed” value ([1]; YPS + farnesol 0.005 wt. %, t 0 min, 37° C., YPS alone 0) was 0 and the “Number of hyphal cells formed” value ([1]; YPS + farnesol 0.005 wt. %, t 20 min, YPS alone 0) was 0. For the same compound, the “Number of hyphal cells formed” value ([1]; YPS + farnesol 0.005 wt. %, t 40 min, YPS alone 15) was 0, the “Number of hyphal cells formed” value ([1]; YPS + farnesol 0.005 wt. %, t 60 min, YPS alone 75) was 3 and the “hyphae formation (in words)” value [1] was “essentially complete prevention”. For the same compound, the “cross contamination of other laundry items (in words)” value (Candida albicans) was “completely prevented” and the “residual microbial burden (in words)” value (Candida albicans) was “drastically reduced”.
With `CC(C)=CCC/C(C)=C/CO` [Geraniol, geraniol] the “Effective inhibitory concentration” value [1] was 0.01% wt. %.
For `O=C(O)/C=C/c1ccccc1` [Trans-cinnamic acid, trans-cinnamic acid], the “Effective inhibitory concentration” value [1] was 0.01% wt. %.
With fucoidan the “cell growth (in words)” value (C. albicans; [3]) was “not affected”, the “Number of hyphal cells formed” value ([1]; YPS + fucoidan 0.2 wt. %, t 0 min, YPS alone 0) was 0 and the “Number of hyphal cells formed” value ([1]; YPS + fucoidan 0.2 wt. %, t 20 min, YPS alone 0) was 0. The “Number of hyphal cells formed” value ([1]; YPS + fucoidan 0.2 wt. %, t 40 min, YPS alone 15) was 4, the “Number of hyphal cells formed” value ([1]; YPS + fucoidan 0.2 wt. %, t 60 min, YPS alone 75) was 25 and the “hyphae formation (in words)” value [1] was “marked reduction”. For the same compound, the “formation of hyphae by Candida albicans (in words)” value [1, 3] was “significantly reduced”.
